One assay concerns the target T1, Human topoisomerase I (Homo sapiens, UniProt P11387).
T1 construct: purchased TopoGEN Inc. (Port Orange, Fla., USA)
T1 sequence (P11387 1-765): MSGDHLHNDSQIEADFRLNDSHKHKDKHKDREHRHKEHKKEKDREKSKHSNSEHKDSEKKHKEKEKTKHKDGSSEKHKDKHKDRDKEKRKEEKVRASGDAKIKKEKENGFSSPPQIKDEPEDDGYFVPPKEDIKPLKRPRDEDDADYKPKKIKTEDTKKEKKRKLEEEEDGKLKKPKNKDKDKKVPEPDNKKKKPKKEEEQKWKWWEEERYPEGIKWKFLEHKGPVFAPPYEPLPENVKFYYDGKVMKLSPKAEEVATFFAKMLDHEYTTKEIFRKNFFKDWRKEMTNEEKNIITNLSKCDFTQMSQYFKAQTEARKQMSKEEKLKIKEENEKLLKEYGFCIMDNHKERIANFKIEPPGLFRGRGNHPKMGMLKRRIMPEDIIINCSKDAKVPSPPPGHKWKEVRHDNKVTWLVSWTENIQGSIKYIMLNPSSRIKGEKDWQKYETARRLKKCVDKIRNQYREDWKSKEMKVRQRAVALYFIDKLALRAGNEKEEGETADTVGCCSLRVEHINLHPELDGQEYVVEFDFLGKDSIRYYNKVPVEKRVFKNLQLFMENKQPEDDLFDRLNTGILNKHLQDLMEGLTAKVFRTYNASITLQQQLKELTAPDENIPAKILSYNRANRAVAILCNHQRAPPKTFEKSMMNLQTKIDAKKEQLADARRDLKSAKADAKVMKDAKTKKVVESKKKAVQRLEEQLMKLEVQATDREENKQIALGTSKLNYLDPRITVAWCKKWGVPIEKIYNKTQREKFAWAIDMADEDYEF
As to the kind of experiment: Human topoisomerase I-mediated relaxation assay. Format: biochemical. The conditions noted are these: read-out: Topo I Human IC50. As to the method: Human topoisomerase I-mediated relaxation assays were performed as per the manufacturer's instructions. Topoisomerase I (2 nM) was added to reactions containing 10 mM of Tris.HCl, pH 7.9, 150 mM NaCl, 100 μM spermidine.HCl, 5% glycerol, 0.1% BSA, 4.6 nM of […] pBR322 DNA, and inhibitor where appropriate.
(§1) All in vitro reactions were incubated at 37° C. for 30 minutes. The DMSO concentration in each reaction was kept constant at 3.33%. Reactions were quenched with the addition of an equal volume of phenol/chloroform/isoamyl alcohol (25:24:1) and one tenth volume of loading buffer containing 40% sucrose, 100 mM Tris.HCl pH 7.5, 100 mM EDTA, 2 mg/mL bromophenol blue. The proteins were precipitated by vortexing, followed by centrifugation for 5 minutes at 16 000 g. The aqueous phase was loaded onto 1% agarose gels in Tris-acetate and were electrophoresed at 60 V for three hours in Tris-acetate buffer. The gels were stained in 1 μg/mL ethidium bromide. The gels were visualised using UV light and were documented and analysed using Syngene software.

Assay [1] deals with Arabidopsis thaliana ecotype Columbia plants. As to the kind of experiment: Effects on A. thaliana seedlings and plants. Format: in vivo. The conditions noted are these: Table 5-C. As to the method:
The microcin derivatives were tested for efficacy in planta against Arabidopsis thaliana ecotype Columbia according to known methods (see Wall et al., 2004). Seeds were germinated on sterile media containing the appropriate peptide and the effects were observed over a three week period. […] In […] seeds, such as A. thaliana, during imbibition the quiescent seed rapidly resumes metabolic and respiratory activity. One of the first steps, as part of this process, is the initiation of mitochondrial DNA synthesis which requires DNA gyrase and which may explain the exquisite sensitivity of the germinating seeds to Peptides 1 and 2.
The leaf tissue initially turned yellow, followed by rapid necrosis of the tissue (see FIG. 32). […] The high hydrophility of Peptide 1 may preferentially allow the compound to readily diffuse through the leaf cuticle and epidermis to the mesophyll and phloem below.
The heterocyclic compounds were also spotted onto the leaves of 4 week old, tissue culture grown Arabidopsis thaliana ecotype Columbia plants (see FIG. 34, panels A-1). […] The browning and necrosis diffused through the full thickness of the leaf over the next 60 minutes (see FIG. 34, panel F) and spread towards the meristem (see FIG. 34, panels E, F, H). Complete necrosis of the meristem and newly emerged leaves, where organellar replication takes place, was complete within 24 hours (see FIG. 34, panel F).

The target in another assay is Human topoisomerase IIα (Homo sapiens, UniProt P11388). As to the kind of experiment: Human Topoisomerase IIα decatenation assay. Details: purchased TopoGEN Inc. (Port Orange, Fla., USA). Format: biochemical. The conditions noted are these: read-out: Topo IIα Human, D (decatenation reaction) IC50. As to the method: Human Topoisomerase IIα-mediated relaxation assays and decatenation assays were performed as per the manufacturer's instructions in a total of 20 μL. Relaxation assays contained Topoisomerase IIα (4.3 nM), 50 mM Tris.HCl pH 8,120 mM KCl, 10 mM MgCl2, 0.5 mM DTT, 0.5 mM ATP, 4.6 nM of supercoiled pBR322 DNA, and inhibitor where appropriate. Decatenation assays substituted the supercoiled DNA with 200 ng catenated kinetoplast DNA.
as §1

In general, IC50 refers to the point on the concentration scale where inhibition reaches its midpoint.

SMILES strings stand for the structures.

Sequence of Human topoisomerase IIα (P11388 whole entry): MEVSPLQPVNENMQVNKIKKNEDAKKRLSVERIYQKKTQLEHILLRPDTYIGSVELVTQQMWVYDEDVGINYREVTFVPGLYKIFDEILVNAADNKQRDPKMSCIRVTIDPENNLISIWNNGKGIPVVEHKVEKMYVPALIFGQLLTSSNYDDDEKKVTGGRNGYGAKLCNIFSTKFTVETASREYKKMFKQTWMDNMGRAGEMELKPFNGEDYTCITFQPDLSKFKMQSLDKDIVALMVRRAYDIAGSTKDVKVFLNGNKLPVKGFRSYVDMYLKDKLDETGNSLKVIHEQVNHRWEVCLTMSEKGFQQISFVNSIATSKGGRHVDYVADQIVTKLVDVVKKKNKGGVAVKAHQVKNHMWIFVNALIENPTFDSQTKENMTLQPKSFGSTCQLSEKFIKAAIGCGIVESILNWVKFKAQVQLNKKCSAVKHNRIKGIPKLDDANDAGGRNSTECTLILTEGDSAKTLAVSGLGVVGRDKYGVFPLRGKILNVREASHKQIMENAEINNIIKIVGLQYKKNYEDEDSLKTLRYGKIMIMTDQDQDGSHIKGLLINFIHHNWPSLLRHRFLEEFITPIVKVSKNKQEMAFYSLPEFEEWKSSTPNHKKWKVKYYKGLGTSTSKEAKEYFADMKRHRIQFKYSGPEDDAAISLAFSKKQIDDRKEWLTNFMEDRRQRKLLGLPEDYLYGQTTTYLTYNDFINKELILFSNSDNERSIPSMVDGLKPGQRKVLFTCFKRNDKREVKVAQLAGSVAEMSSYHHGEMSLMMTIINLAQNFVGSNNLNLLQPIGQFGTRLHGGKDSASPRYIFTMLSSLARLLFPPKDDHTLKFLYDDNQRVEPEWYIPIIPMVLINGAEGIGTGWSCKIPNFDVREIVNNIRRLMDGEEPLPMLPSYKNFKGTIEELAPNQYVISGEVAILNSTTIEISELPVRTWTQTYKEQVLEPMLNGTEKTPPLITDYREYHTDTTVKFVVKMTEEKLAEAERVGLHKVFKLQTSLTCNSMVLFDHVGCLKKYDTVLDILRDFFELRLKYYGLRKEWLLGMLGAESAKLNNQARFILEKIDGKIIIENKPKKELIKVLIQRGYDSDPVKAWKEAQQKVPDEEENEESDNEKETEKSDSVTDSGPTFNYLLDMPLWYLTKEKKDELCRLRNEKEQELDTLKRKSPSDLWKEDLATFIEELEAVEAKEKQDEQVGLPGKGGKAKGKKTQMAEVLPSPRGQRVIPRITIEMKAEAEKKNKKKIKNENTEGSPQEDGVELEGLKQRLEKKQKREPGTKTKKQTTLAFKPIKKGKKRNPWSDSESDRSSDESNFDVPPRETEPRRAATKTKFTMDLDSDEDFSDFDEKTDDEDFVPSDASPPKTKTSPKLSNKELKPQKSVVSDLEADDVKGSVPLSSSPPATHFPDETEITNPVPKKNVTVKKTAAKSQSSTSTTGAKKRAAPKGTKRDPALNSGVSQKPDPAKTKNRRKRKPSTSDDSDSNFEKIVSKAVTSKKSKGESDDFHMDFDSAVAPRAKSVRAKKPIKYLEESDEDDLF

As for `CC(C)(C)OC(=O)NCc1nc(C(=O)O)co1` [#6], the IC50 on Human topoisomerase I was more than 300 µM; on Human topoisomerase IIα, more than 250 µM. In addition, the “In vivo Plants, P (whole plants, expanded Arabidopsis leaves)” value in assay [1] is reported as “P > 300 μM”.

These data come from patent US20080234132A1, “Microcin B17 Analogs And Methods For Their Preparation And Use” (priority 2004, published 2008).
